Assays:
[1] = molecular target: T1, human adenosine A2a receptor (Homo sapiens, UniProt P29274); experiment: Adenosine receptor radioligand binding assay, A2a receptor ([3H]-CGS 21680, HEK293 membranes); conditions: membrane preparations of HEK293 cells, radioligand [3H]-CGS 21680
T1 construct: expressed in transfected cells; host or cells: HEK293
Protocol: (§1) The binding properties of the test compounds on adenosine receptors were determined in binding studies with radioligands. For this purpose, membrane preparations of the human adenosine receptor subtypes were produced from cell lines having recombinant receptor expression (CHO cells for the A1 receptor, HEK293 cells for the A2a, A2b and A3 receptors). The following radioligands were used in the experiments: [^3H]-DPCPX for the A1 receptor, [^3H]-CGS 21680 for the A2a receptor, [^3H]-CPX for the A2b receptor and [^125I]-AB-MECA for the A3 receptor. The test substances were each tested in 8 different concentrations and 2 repeat tests per concentration. The displacement of the particular radioligand by the test compound was expressed as percentage inhibition of the specific binding of the controls.
(§2) The IC50 values (concentration which brings about half-maximum inhibition of the specific binding of the controls) and the Hill coefficients (nH) were determined by a non-linear regression analysis, using the competition curves obtained from the mean values of the repeat tests and conducting a curve fit according to the Hill equation:
(§3) (Y=specific binding; A=left-hand asymptote of the curve; D=right-hand asymptote of the curve; C=substance concentration; C50=IC50; nH=rise factor).
(§4) The inhibition constant (Ki) was calculated by the Cheng-Prusoff equation:
(§5) (L=concentration of the radioligand in the assay; KD=receptor affinity of the radioligand for the receptor, determined with a Scatchard plot).
(§6) [Literature: A1 receptor: Townsend-Nicholson, A. und Schofield, P. R., J. Biol. Chem. 269: 2373-2376 (1994); A2a receptor: Luthin, D. R. et al., Mol. Pharmacol. 47: 307-313 (1995); A2b receptor: Stehle, J. H. et al., Mol. Endocrinol. 6: 384-393 (1992) and Linden et al., Mol. Pharmacol. 56: 705-713 (1999); A3 receptor: Salvatore, C. A. et al., Proc. Natl. Acad. Sci. U.S.A. 90: 10365-10369 (1993) and Jacobson, K. A. et al., Neuropharmacology 36: 1157-1165 (1997)].
(§7) Table 2 below lists the K1 values thus determined from these binding assays for representative working examples (in some cases as means of a plurality of independent individual determinations and rounded to two significant figures; it may also be the case here that various independent preparations of the respective working example have been used): […]

[2] = molecular target: T2, human adenosine A1 receptor (Homo sapiens, UniProt P30542); experiment: Adenosine receptor radioligand binding assay, A1 receptor ([3H]-DPCPX, CHO membranes); conditions: membrane preparations of CHO cells, radioligand [3H]-DPCPX
T2 construct: expressed in transfected cells; host or cells: CHO
T2 sequence (P30542 1-326): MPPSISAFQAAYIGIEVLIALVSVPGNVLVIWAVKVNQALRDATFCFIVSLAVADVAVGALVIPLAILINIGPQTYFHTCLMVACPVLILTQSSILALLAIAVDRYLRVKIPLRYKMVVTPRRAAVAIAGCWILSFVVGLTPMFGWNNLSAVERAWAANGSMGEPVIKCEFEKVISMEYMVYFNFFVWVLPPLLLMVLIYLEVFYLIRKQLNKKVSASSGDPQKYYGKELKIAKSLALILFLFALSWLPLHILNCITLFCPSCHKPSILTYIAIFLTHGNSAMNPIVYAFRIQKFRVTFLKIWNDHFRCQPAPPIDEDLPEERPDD
Protocol: as §1, §2, §3, §4, §5, §6, §7

[3] = molecular target: T3, human adenosine A2b receptor (Homo sapiens, UniProt P29275); experiment: Adenosine receptor radioligand binding assay, A2b receptor ([3H]-CPX, HEK293 membranes); set-up: expressed in transfected cells; conditions: membrane preparations of HEK293 cells, radioligand [3H]-CPX
T3 sequence (P29275 1-332): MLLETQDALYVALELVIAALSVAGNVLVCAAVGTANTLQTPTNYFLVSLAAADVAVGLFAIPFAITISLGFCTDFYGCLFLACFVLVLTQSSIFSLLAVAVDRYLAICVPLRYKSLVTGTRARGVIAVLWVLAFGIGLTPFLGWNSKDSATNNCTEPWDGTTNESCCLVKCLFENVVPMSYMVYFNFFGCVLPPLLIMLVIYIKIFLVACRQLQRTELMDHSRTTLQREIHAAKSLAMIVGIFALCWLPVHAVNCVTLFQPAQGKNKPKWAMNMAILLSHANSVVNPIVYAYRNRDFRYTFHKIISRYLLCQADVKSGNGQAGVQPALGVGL
Protocol: as §1, §2, §3, §4, §5, §6, §7

[4] = molecular target: T4, human adenosine A3 receptor (Homo sapiens, UniProt P0DMS8); experiment: Adenosine receptor radioligand binding assay, A3 receptor ([125I]-AB-MECA, HEK293 membranes); conditions: membrane preparations of HEK293 cells, radioligand [125I]-AB-MECA
T4 construct: expressed in transfected cells; host or cells: HEK293
T4 sequence (P0DMS8 1-318): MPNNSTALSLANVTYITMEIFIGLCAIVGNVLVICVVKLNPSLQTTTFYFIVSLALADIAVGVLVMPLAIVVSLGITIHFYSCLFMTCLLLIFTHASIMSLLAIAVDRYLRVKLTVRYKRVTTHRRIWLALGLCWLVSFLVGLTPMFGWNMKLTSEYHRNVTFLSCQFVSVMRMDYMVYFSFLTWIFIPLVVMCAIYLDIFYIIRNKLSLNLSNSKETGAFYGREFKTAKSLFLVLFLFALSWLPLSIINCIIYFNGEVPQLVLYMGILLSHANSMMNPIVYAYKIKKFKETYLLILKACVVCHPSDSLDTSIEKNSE
Protocol: as §1, §2, §3, §4, §5, §6, §7

[5] = molecular target: T3, human adenosine A2b receptor; experiment: Cellular in vitro reporter gene test for A2b receptor activity (antagonism of NECA); type: cell-based; set-up: expressed in transfected cells; host or cells: CHO-K1 (Chinese hamster ovary) with CRE-luciferase reporter; conditions: recombinant CHO-K1 cells, CRE-luciferase reporter, co-incubation with EC50 concentration of NECA, 3 hours
How it was run: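 CHO-K1 cells expressing recombinant human A2b receptor plus a CRE-driven firefly luciferase reporter. Compounds co-incubated with NECA at its same-day EC50 concentration; luminescence read 3 hours after NECA addition. IC50 values, sometimes means of several determinations rounded to two significant figures.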

[6] = test system: IL-6 release by LL29 fibroblasts; experiment: NECA-induced IL-6 release by LL29 fibroblasts; type: cell-based; conditions: Homo sapiens, Fibroblast; LL29 cells stimulated with NECA (10 μM), 24 hours, IL-6 ELISA of supernatant
Protocol: Stimulation of fibroblasts with adenosine or the adenosine analog 5′-N-ethylcarboxamidoadenosine (NECA) leads to release of the pro-inflammatory and pro-fibrotic cytokine IL-6 which can be prevented by inhibition of the A2b receptor.
Accordingly, confluent cells of the human fibroblast cell line LL29 were treated with the test substances and stimulated with NECA (10 μM). After an incubation time of 24 hours, the cell supernatant is removed and human IL-6 in the cell supernatant is determined by ELISA (Quantikine® IL6 ELISA, R&D Systems, Minneapolis, USA).
as §7, with “3” for “2”, “IC50” for “K1”, “obtained in this way for inhibition of IL-6 release” for “thus determined from these binding assays”

[7] = test system: bladder tumours and breast tumours; conditions: animal models of bladder tumours and breast tumours; cited from earlier work

T1 sequence (P29274 whole entry): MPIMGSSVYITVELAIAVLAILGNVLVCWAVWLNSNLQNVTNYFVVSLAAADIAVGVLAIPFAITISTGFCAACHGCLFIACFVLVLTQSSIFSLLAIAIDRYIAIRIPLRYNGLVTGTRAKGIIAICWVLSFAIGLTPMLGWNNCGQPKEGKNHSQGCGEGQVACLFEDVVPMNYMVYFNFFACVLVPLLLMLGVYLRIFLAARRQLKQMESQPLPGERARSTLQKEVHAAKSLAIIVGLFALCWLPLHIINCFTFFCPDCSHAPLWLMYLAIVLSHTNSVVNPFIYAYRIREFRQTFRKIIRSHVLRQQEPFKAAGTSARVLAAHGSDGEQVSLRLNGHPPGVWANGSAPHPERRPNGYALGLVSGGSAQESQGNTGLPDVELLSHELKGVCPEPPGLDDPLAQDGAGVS

Ki [1] [µM]	Ki [2] [µM]	Ki [3] [µM]	Ki [4] [µM]	IC50 [5] [µM]	SMILES	IC50 [6] [µM]	also measured
0.48	3.4	0.0037	3.7	0.0038	COCCn1c(=O)n([C@H]2C[C@@H]2C)c(=O)c2c(C)c(CN3CCNC3=O)sc21 [Example 315, 1-(2-Methoxyethyl)-5-methyl-3-[(1S,2S)-2-methylcyclopropyl]-6-[(2-oxoimidazolidin-1-yl)methyl]thieno[2,3-d]pyrimidine-2,4(1H,3H)-dione]	0.0049	–
4.8	> 10	0.0057	> 10	0.015	COCCn1c(=O)n(C2(C)CC2)c(=O)c2c(C)c(CN3CCNC3=O)sc21 [Example 70, 1-(2-Methoxyethyl)-5-methyl-3-(1-methylcyclopropyl)-6-[(2-oxoimidazolidin-1-yl)methyl]thieno[2,3-d]pyrimidine-2,4(1H,3H)-dione]	–	–
–	–	–	–	–	CCCn1c(=O)n(C2CC2)c(=O)c2[nH]c(-c3ccc(N(CC)C(=O)c4cccnc4)nc3)nc21 [ATL801]	–	interferon γ level [7]: significant increase; metastasis [7]: distinct reduction in metastasis; number of tumour antigen-presenting dendritic cells [7]: increase; tumour growth [7]: slowing of tumour growth
–	–	–	–	0.012	Cc1c(CN2CCNC2=O)sc2c1c(=O)n(C1CC1)c(=O)n2CCCF [Example 5, 3-Cyclopropyl-1-(3-fluoropropyl)-5-methyl-6-[(2-oxoimidazolidin-1-yl)methyl]thieno[2,3-d]pyrimidine-2,4(1H,3H)-dione]	0.021	–
–	–	–	–	0.0085	Cc1c(Cn2nc[nH]c2=O)sc2c1c(=O)n(C1(C)CC1)c(=O)n2CCOC(F)(F)F [Example 76, 5-Methyl-3-(1-methylcyclopropyl)-6-[(5-oxo-4,5-dihydro-1H-1,2,4-triazol-1-yl)methyl]-1-[2-(trifluormethoxy)ethyl]thieno[2,3-d]pyrimidine-2,4(1H,3H)-dione]	0.011	–
–	–	–	–	0.0083	COCCn1c(=O)n(C2CC2)c(=O)c2c(C)c(CN3CCNC3=NC(=O)OC)sc21 [Example 26, Methyl [1-{[3-cyclopropyl-1-(2-methoxyethyl)-5-methyl-2,4-dioxo-1,2,3,4-tetrahydrothieno[2,3-d]pyrimidin-6-yl]methyl}imidazolidin-2-ylidene]carbamate]	0.012	–
0.48	3.4	0.0037	3.7	0.0038	COCCn1c(=O)n(C2CC2C)c(=O)c2c(C)c(CN3CCNC3=O)sc21 (single isomer, unassigned) [Example 96, 1-(2-Methoxyethyl)-5-methyl-3-(2-methylcyclopropyl)-6-[(2-oxoimidazolidin-1-yl)methyl]thieno[2,3-d]pyrimidine-2,4(1H,3H)-dione]	0.0049	–
3	8	0.0036	> 10	0.014	Cc1c(Cn2nc[nH]c2=O)sc2c1c(=O)n(C1CC1)c(=O)n2CCC(F)(F)F [Example 15, 3-Cyclopropyl-5-methyl-6-[(5-oxo-4,5-dihydro-1H-1,2,4-triazol-1-yl)methyl]-1-(3,3,3-trifluoropropyl)thieno[2,3-d]pyrimidine-2,4(1H,3H)-dione]	–	–
0.95	2.6	0.0026	> 50	0.0044	Cc1c(Cn2nc[nH]c2=O)sc2c1c(=O)n(C1CC1)c(=O)n2CCOC(F)(F)F [Example 36, 3-Cyclopropyl-5-methyl-6-[(5-oxo-4,5-dihydro-1H-1,2,4-triazol-1-yl)methyl]-1-[2-(trifluoromethoxy)ethyl]thieno[2,3-d]pyrimidine-2,4(1H,3H)-dione]	0.0061	melting point: 199 °C
–	–	–	–	0.016	COC(=O)N=C1NCCN1Cc1sc2c(c1C)c(=O)n(C1CC1)c(=O)n2CC1CCCO1 (single isomer, unassigned) [Example 44, Methyl [1-{[3-cyclopropyl-5-methyl-2,4-dioxo-1-(tetrahydrofuran-2-ylmethyl)-1,2,3,4-tetrahydrothieno[2,3-d]pyrimidin-6-yl]methyl}imidazolidin-2-ylidene]carbamate]	–	–
–	–	–	–	0.11	Cc1c(CN2CCNC2=O)sc2c1c(=O)n(C1(C)CC1)c(=O)n2CCOC(C)C [Example 79, 1-(2-Isopropoxyethyl)-5-methyl-3-(1-methylcyclopropyl)-6-[(2-oxoimidazolidin-1-yl)methyl]thieno[2,3-d]pyrimidine-2,4(1H,3H)-dione]	–	–
–	–	–	–	0.002	COC(=O)N=C1NCCN1Cc1sc2c(c1C)c(=O)n(C1CC1C)c(=O)n2CCOC(F)(F)F (single isomer, unassigned) [Example 269, Methyl [1-({5-methyl-3-(2-methylcyclopropyl)-2,4-dioxo-1-[2-(trifluoromethoxy)ethyl]-1,2,3,4-tetrahydrothieno[2,3-d]pyrimidin-6-yl}methyl)imidazolidin-2-ylidene]carbamate]	–	–
–	–	–	–	0.017	Cc1c(Cn2nc[nH]c2=O)sc2c1c(=O)n([C@H]1C[C@@H]1C)c(=O)n2CC1CC1(F)F (stereo partly drawn) [Example 326, 1-[(2,2-Difluorocyclopropyl)methyl]-5-methyl-3-[(1S,2S)-2-methylcyclopropyl]-6-[(5-oxo-4,5-dihydro-1H-1,2,4-triazol-1-yl)methyl]thieno[2,3-d]pyrimidine-2,4(1H,3H)-dione]	–	–

From patent US20200016159A1, “N3-CYCLICALLY SUBSTITUTED THIENOURACILS AND USE THEREOF” (Bayer Aktiengesellschaft, priority 2016, published 2020)
